In ChEMBL document CHEMBL4190191, “Cyclic Diarylheptanoids from Corylus avellana Green Leafy Covers: Determination of Their Absolute Configurations and Evaluation of Their Antioxidant and Antimicrobial Activities” (J Nat Prod, 2017):

Tests used:
Type in all cases: functional
Settings in all cases: read-out: DIZ
Escherichia coli = experiment: Antimicrobial activity against Escherichia coli DSM 8579 assessed as growth inhibition at 7 ug per disc after 24 to 48 hrs (reference value: 0 millimeter)
Staphylococcus aureus = experiment: Antimicrobial activity against Staphylococcus aureus DSM 25923 assessed as growth inhibition at 7 ug per disc after 24 to 48 hrs (reference value: 0 millimeter)
Pseudomonas aeruginosa = experiment: Antimicrobial activity against Pseudomonas aeruginosa DSM 50071 assessed as growth inhibition at 7 ug per disc after 24 to 48 hrs (reference value: 0 millimeter)
Bacillus cereus [1] = experiment: Antimicrobial activity against Bacillus cereus DSM 4384 assessed as growth inhibition at 7 ug per disc after 24 to 48 hrs (reference value: 0 millimeter)
Bacillus cereus [2] = experiment: Antimicrobial activity against Bacillus cereus DSM 4313 assessed as growth inhibition at 7 ug per disc after 24 to 48 hrs (reference value: 0 millimeter)

CN(C)[C@@H]1C(O)=C(C(N)=O)C(=O)[C@@]2(O)C(O)=C3C(=O)c4c(O)cccc4[C@@](C)(O)[C@H]3C[C@@H]12 [TETRACYCLINE]
zone of inhibition at 7 µg/disc (Escherichia coli): 12.7 mm
zone of inhibition at 7 µg/disc (Staphylococcus aureus): 11.3 mm
zone of inhibition at 7 µg/disc (Pseudomonas aeruginosa): 9.67 mm
zone of inhibition at 7 µg/disc (Bacillus cereus [1]): 8.67 mm
zone of inhibition at 7 µg/disc (Bacillus cereus [2]): 10.3 mm
